pIC50: −log10 of the molar value.
How the values were obtained:
[1] = biological target: T1, KRAS G12D (amino acids 1-169) (Homo sapiens, UniProt P01116, G12D); test: SOS-catalyzed nucleotide exchange assay (Procedure B, BODIPY FL GDP displacement); assay type: biochemical; conditions: Procedure B (Example Nos. 18, 21, 23, 33-34); 1 hour incubation, SOS1 + GMPPNP; read-out: KRAS G12D GNE IC50
T1 construct: made in house; host or cells: E. coli
Procedure: (§1) Procedure for SOS-Catalyzed Nucleotide Exchange Assay for KRAS-G12C/D/V (Procedure B)
(§2) Recombinant KRAS G12C (amino acids 1-169, SEQ ID NO:8), KRAS G12D (amino acids 1-169, SEQ ID NO:9), KRAS G12V (amino acids 1-169, SEQ ID NO:10) and SOS1 (amino acids 564-1049, SEQ ID NO:11) proteins were expressed in E. coli and purified by affinity chromatography. To prepare each BODIPY™ FL GDP-bound KRAS mutant protein, 50 μM KRAS mutant proteins were incubated with 0.5 mM BODIPY™ FL GDP (Invitrogen, G22360) in a loading buffer (20 mM Tris-HCl pH 7.5, 50 mM NaCl, 1 mM DTT and 2.5 mM EDTA) for 1 hour on ice. After the incubation, MgCl2 was added to a final concentration of 10 mM, followed by an incubation at room temperature for 30 minutes. The mixtures were allowed to pass through a NAP-5 column to remove free nucleotides and purified BODIPY™ FL GDP-bound KRAS G12C, G12D and G12V proteins were used for compound evaluation.
(§3) The inhibitory activity of compounds on recombinant KRAS mutants is measured by the displacement of the bound BODIPY™ GDP. Specifically, 2.5 nM of each BODIPY™ FL GDP-bound KRAS mutant complex was incubated with various concentrations of compound in a reaction buffer (20 mM Tris-HCl pH 7.5, 100 mM NaCl, 1 mM MgCl2, 2 mM DTT, 0.1% Tween 20) at 25° C. for 1 hour. After the incubation, recombinant SOS1 and GMPPNP (Jena Bioscience GmbH, NU-401) were added and incubated at room temperature for 30 minutes to proceed SOS1-dependent GDP-GTP exchange reaction on KRAS mutants. Displacement of BODIPY™ FL GDP by Guanosine-5′-[(β,γ)-imido]triphosphate, Tetralithium salt (GMPPNP) was measured by calculating the ratio of fluorescence intensities of BODIPY™ FL before and after the exchange reaction. […] Dose response curves were analyzed using a 4-parameter logistic model to calculate IC50 values.
(§4) For Example Nos. 1-17, 19-20, 22, 24-32, and 35-53 nucleotide exchange assays for KRAS G12D, G12C, G12V, and G13D were performed according to Procedure A. For Example Nos. 18, 21, 23, and 33-34, nucleotide exchange assays for KRAS G12D, G12C, and G12V were performed according to Procedure B.

[2] = biological target: T2, KRAS G12V (amino acids 1-169) (Homo sapiens, UniProt P01116, G12V); test: as above; assay type: biochemical; conditions: Procedure B (Example Nos. 18, 21, 23, 33-34); 1 hour incubation, SOS1 + GMPPNP; read-out: KRAS G12V GNE IC50
T2 construct: made in house; host or cells: E. coli
Procedure: as §1, §2, §3, §4

[3] = biological target: T3, KRAS G12C (amino acids 1-169) (Homo sapiens, UniProt P01116, G12C); test: as above; assay type: biochemical; conditions: Procedure B (Example Nos. 18, 21, 23, 33-34); 1 hour incubation, SOS1 + GMPPNP; read-out: KRAS G12C GNE IC50
T3 construct: made in house; host or cells: E. coli
Procedure: as §1, §2, §3, §4

[4] = biological target: T4, KRAS-G12C (C51S/C80L/C118S) (Homo sapiens, UniProt P01116, C118S/C51S/C80L/G12C); test: SOS-catalyzed nucleotide exchange assay (Procedure A, TR-FRET); assay type: biochemical; conditions: 60 min preincubation, SOS + GTP, read-out: KRAS G12C GNE IC50
T4 construct: N-terminal biotin-acceptor peptide […]
Method in brief: (§5)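 Preformed biotinylated RAS–Bodipy-GDP/Tb-streptavidin complex preincubated with compound 60 min at room temperature, then SOS plus GTP (3 mM final) added. Exchange times: G13D 30 min, G12C/D 60 min, G12V 90 min. Final RAS/SOS: G12C 3 nM/40 nM, G12D 1 nM/40 nM, G12V 1.25 nM/160 nM, G13D 1.25 nM/0 nM. TR-FRET 520/495 ratio, four-parameter fit.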

[5] = biological target: T5, KRAS-G13D (Homo sapiens, UniProt P01116, G13D); test: as above; assay type: biochemical; conditions: 60 min preincubation, GTP, read-out: KRAS G13D GNE IC50
T5 construct: N-terminal biotin-acceptor peptide […]
Method in brief: as §5

[6] = biological target: T6, KRAS-G12V (Homo sapiens, UniProt P01116, G12V); test: as above; assay type: biochemical; conditions: 60 min preincubation, SOS + GTP, read-out: KRAS G12V GNE IC50
T6 construct: N-terminal biotin-acceptor peptide […]
Method in brief: as §5

[7] = biological target: T7, KRAS-G12D (Homo sapiens, UniProt P01116, G12D); test: as above; assay type: biochemical; conditions: 60 min preincubation, SOS + GTP, read-out: KRAS G12D GNE IC50
T7 construct: N-terminal biotin-acceptor peptide […]
Method in brief: as §5

[8] = tested on: SW620 cells (homozygous KRAS-G12V activating mutation); test: Cellular phospho-ERK assay in G12V cell line; assay type: cell-based; conditions: Homo sapiens, SW-620, 2 hours compound incubation, ratio of p-ERK vs. total ERK, read-out: SW620 pERK IC50
Method in brief: (§6)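 Cells (10,000-15,000/well) were seeded overnight, then treated for 2 h at 37 °C with a 10-point 1:3 titration from 30 μM final. Lysates were assayed by AlphaLISA SureFire Ultra multiplex, with the p-ERK/total-ERK ratio as read-out; IC50 came from a 4-parameter logistic fit.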

[9] = tested on: PANC08.13 cells (homozygous KRAS-G12D activating mutation); test: Cellular phospho-ERK assay in G12D cell line; assay type: cell-based; conditions: Homo sapiens, PANC-08-13, 2 hours compound incubation, ratio of p-ERK vs. total ERK, read-out: PANC 0813 pERK IC50
Method in brief: as §6

[10] = biological target: NRAS (Homo sapiens, UniProt P01111); test: SOS-catalyzed nucleotide exchange assay (Procedure A, TR-FRET); assay type: biochemical; conditions: 60 min preincubation, SOS + GTP, read-out: NRAS GNE IC50
Method in brief: (§7)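 Biotinylated WT-sequence HRAS or NRAS (1.25 nM final) loaded with Bodipy-GDP plus Tb-streptavidin, preincubated 60 min with compound (10-point, 3-fold). Exchange started with human SOS (40 nM) and 3 mM GTP, 60 min at room temperature, pH 7.5 Mg buffer. TR-FRET 520/495 ratio normalised to DMSO and saturating inhibitor, four-parameter fit.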

[11] = biological target: HRAS (Homo sapiens, UniProt P01112); test: as above; assay type: biochemical; conditions: 60 min preincubation, SOS + GTP, read-out: HRAS GNE IC50
Method in brief: as §7

T1 sequence (P01116 with tags, fused parts or gaps isoform P01116-2 G12D): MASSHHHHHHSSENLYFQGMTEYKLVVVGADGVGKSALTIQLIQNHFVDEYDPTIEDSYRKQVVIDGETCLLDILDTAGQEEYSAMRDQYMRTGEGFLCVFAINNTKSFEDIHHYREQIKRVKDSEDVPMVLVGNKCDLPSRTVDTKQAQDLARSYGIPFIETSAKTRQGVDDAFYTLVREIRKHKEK
T6 sequence (P01116 with tags, fused parts or gaps isoform P01116-2 G12V): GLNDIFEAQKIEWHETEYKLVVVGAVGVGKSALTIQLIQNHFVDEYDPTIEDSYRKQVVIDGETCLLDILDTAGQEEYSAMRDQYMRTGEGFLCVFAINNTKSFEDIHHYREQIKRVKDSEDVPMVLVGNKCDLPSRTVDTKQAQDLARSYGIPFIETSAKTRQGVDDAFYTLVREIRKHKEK
T3 sequence (P01116 with tags, fused parts or gaps isoform P01116-2 G12C): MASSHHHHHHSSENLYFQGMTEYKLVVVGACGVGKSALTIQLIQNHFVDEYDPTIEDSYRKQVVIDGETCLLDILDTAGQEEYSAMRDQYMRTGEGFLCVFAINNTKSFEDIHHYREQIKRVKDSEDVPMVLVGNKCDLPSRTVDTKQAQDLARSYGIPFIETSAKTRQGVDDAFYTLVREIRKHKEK
T5 sequence (P01116 with tags, fused parts or gaps isoform P01116-2 G13D): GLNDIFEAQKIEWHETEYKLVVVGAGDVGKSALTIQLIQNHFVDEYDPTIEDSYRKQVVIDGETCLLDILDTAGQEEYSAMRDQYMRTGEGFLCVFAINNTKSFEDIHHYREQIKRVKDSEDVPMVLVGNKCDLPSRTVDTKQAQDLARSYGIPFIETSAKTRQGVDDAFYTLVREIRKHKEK
T2 sequence (P01116 with tags, fused parts or gaps isoform P01116-2 G12V): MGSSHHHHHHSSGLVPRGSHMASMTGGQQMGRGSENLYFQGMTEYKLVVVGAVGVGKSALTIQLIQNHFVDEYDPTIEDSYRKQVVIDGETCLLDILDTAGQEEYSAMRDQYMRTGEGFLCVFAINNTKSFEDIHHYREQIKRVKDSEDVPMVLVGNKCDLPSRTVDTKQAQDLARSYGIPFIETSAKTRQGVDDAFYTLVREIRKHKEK
Chain of NRAS (P01111 with tags, fused parts or gaps): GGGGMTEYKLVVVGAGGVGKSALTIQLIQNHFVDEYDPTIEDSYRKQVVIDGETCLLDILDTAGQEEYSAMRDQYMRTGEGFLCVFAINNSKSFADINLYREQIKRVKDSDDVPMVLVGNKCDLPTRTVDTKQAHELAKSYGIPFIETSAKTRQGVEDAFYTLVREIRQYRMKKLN
Chain of HRAS (P01112 with tags, fused parts or gaps): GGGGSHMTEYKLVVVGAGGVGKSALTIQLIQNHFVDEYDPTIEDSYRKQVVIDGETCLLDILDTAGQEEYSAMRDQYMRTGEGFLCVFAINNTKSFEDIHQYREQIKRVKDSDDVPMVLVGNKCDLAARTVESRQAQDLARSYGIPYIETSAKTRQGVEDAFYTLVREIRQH
T7 sequence (P01116 with tags, fused parts or gaps isoform P01116-2 G12D): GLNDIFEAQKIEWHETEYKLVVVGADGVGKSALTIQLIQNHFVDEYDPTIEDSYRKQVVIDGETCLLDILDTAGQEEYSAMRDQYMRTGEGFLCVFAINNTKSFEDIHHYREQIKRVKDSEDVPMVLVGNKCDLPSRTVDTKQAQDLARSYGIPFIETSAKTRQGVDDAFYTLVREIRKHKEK
T4 sequence (P01116 with tags, fused parts or gaps isoform P01116-2 G12C/C51S/C80L/C118S): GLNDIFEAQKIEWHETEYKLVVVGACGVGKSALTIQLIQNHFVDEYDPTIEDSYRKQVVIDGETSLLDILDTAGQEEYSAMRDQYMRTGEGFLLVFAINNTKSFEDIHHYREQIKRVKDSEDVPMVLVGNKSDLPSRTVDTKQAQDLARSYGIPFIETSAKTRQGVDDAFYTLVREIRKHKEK

Row | SMILES | pIC50 [1] | pIC50 [2] | pIC50 [3] | pIC50 [4] | pIC50 [5] | pIC50 [6] | pIC50 [7] | pIC50 [8] | pIC50 [9] | pIC50 [10] | pIC50 [11]
1 | N#Cc1c(N)sc2c(F)ccc(-c3c(Cl)cc4c(N5CCCOCC5)nc(OC[C@@]56CCCN5C[C@H](F)C6)nc4c3F)c12 (single isomer, unassigned) [Ex. 18] | 8.27 | 8.54 | 8.55 |  |  |  |  |  |  |  | 
2 | N#Cc1c(N)sc2c(F)ccc(-c3c(Cl)cc4c(N5CCCOCC5)nc(OC[C@]5(CO)CC5(F)F)nc4c3F)c12 (single isomer, unassigned) [Ex. 33] | 5.31 | 5.65 | 5.99 |  |  |  |  |  |  |  | 
3 | N#Cc1c(N)sc2c(F)cc(F)c(-c3ncc4c(N5CCCOCC5)nc(OC[C@@]56CCCN5C[C@H](F)C6)nc4c3F)c12 [Ex. 23, 2-amino-5,7-difluoro-4-(8-fluoro-2-(((2R,7aS)-2-fluorotetrahydro-1H-pyrrolizin-7a(5H)-yl)methoxy)-4-(1,4-oxazepan-4-yl)pyrido[4,3-d]pyrimidin-7-yl)benzo[b]thiophene-3-carbonitrile] | 6.85 | 7.11 | 7.48 |  |  |  |  |  |  |  | 
4 | N#Cc1c(N)sc2c(F)ccc(-c3c(C(F)(F)F)cc4c(N5CCCOCC5)nc(OC[C@@]56CCCN5C[C@H](F)C6)nc4c3F)c12 [Ex. 34, 2-amino-7-fluoro-4-(8-fluoro-2-(((2R,7aS)-2-fluorotetrahydro-1H-pyrrolizin-7a(5H)-yl)methoxy)-4-(1,4-oxazepan-4-yl)-6-(trifluoromethyl)quinazolin-7-yl)benzo[b]thiophene-3-carbonitrile] | 8.46 | 8.78 | 8.75 |  |  |  |  |  |  |  | 
5 | C[C@H]1CCOCCN1c1nc(OC[C@@]23CCCN2C[C@H](F)C3)nc2c(F)c(-c3ccc(F)c4sc(N)c(C#N)c34)ncc12 [compound 21, 2-amino-7-fluoro-4-(8-fluoro-2-(((2R,7aS)-2-fluorotetrahydro-1H-pyrrolizin-7a(5H)-yl)methoxy)-4-((S)-5-methyl-1,4-oxazepan-4-yl)pyrido[4,3-d]pyrimidin-7-yl)benzo[b]thiophene-3-carbonitrile] | 6.87 | 7.20 | 7.68 |  |  |  |  |  |  |  | 
6 | CC1(NC[C@@]2(COc3nc(N4CCCOCC4)c4cc(Cl)c(-c5ccc(F)c6sc(N)c(C#N)c56)c(F)c4n3)CC2(F)F)CCC1 [compound 28, 2-amino-4-(6-chloro-2-(((R)-2,2-difluoro-1-(((1-methylcyclobutyl)ami-no)methyl)cyclopropyl)methoxy)-8-fluoro-4-(1,4-oxazepan-4-yl)quinazolin-7-yl)-7-fluorobenzo[b]thiophene-3-carbonitrile] |  |  |  | 7.11 | 6.59 | 7.00 | 5.73 | 6.06 | 5.62 | < 4.96 | < 4.96
7 | Cc1cc(N)nc(-c2c(Cl)cc3c(N4CCCOCC4)nc(OC[C@@]45CCCN4C[C@H](F)C5)nc3c2F)c1C(F)(F)F [compound 40, 6-(6-chloro-8-fluoro-2-(((2R,7aS)-2-fluorotetrahydro-1H-pyrrolizin-7a(5H)-yl)methoxy)-4-(1,4-oxazepan-4-yl)quinazolin-7-yl)-4-methyl-5-(trifluoromethyl)pyridin-2-amine] |  |  |  | 7.08 | 6.69 | 7.11 | 6.45 | 6.20 | 6.09 | < 4.96 | < 4.96
8 | Cc1cc(N)nc(-c2c(Cl)cc3c(N4CCCOCCC4)nc(OC[C@@]45CCCN4C[C@H](F)C5)nc3c2F)c1C(F)(F)F [compound 41, 6-(6-chloro-8-fluoro-2-(((2R,7aS)-2-fluorotetrahydro-1H-pyrrolizin-7a(5H)-yl)methoxy)-4-(1,5-oxazocan-5-yl)quinazolin-7-yl)-4-methyl-5-(trifluoromethyl)pyridin-2-amine] |  |  |  | 7.25 | 7.12 | 7.33 | 6.90 | 6.29 | 6.46 | < 4.96 | < 4.96
